Test results published in patent US10508104B2, “6-hydroxy-5-(phenyl/heteroarylsulfonyl)pyrimidin-4(1H)-one as APJ agonists” (Bristol-Myers Squibb Company, priority 2016, dated 2019).

Each compound was assayed against human APJ receptor (Homo sapiens (Human), UniProt P35414) (assay: Intracellular cAMP accumulation assay (APJ hcAMP, HTRF)). Conditions: HEK293 cells stably expressing human APJ receptor; inhibition of forskolin-mediated cAMP production; read-out: Human APJ cAMP EC50 Potency range.
Assay type: cell-based
Summary of the method: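 HEK293 cells stably expressing human APJ, 5,000 per well, incubated 30 min at rt with compound, […] and 2 μM forskolin. cAMP measured by HTRF against a cAMP standard curve as inhibition of forskolin-driven production. EC50 from variable-slope sigmoidal fit.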

Sequence of human APJ receptor (P35414 whole entry): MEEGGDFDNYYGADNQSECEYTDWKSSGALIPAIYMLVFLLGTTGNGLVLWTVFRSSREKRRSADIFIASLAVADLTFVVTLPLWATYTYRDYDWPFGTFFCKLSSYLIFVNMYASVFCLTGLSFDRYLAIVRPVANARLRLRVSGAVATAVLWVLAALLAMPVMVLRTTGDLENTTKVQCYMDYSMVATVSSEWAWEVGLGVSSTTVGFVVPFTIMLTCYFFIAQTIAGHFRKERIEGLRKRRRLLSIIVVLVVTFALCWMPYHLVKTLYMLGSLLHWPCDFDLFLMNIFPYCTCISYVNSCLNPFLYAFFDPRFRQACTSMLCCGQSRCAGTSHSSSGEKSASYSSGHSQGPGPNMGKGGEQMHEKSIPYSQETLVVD

Compound | EC50 [nM]
COC[C@@H](c1cccc(C#N)c1)n1c(COC(C)C)nc(=O)c(S(=O)(=O)c2ccc(-c3cn(C)nc3C)cc2)c1O [Example 393, 3-[(1R)-1-{5-[4-(1,3-dimethyl-1H-pyrazol-4-yl)benzenesulfonyl]-6-hydroxy-4-oxo-2-[(propan-2-yloxy)methyl]-1,4-dihydropyrimidin-1-yl}-2-methoxyethyl]benzonitrile] | 0.01 to 10
COC[C@@H](c1cccc(C#N)c1)n1c(COC(C)C)nc(=O)c(S(=O)(=O)c2ccc(-c3c[nH]nc3C)cc2)c1O [Example 394, 3-[(1R)-1-{6-hydroxy-5-[4-(3-methyl-1H-pyrazol-4-yl)benzenesulfonyl]-4-oxo-2-[(propan-2-yloxy)methyl]-1,4-dihydropyrimidin-1-yl}-2-methoxyethyl]benzonitrile] | 0.01 to 10
COC[C@@H](c1cc(F)cc(F)c1)n1c(COC(C)C)nc(=O)c(S(=O)(=O)c2ccc(-c3cnn(C)c3C)cc2)c1O [Example 397, 1-[(1R)-1-(3,5-difluorophenyl)-2-methoxyethyl]-5-[4-(1,5-dimethyl-1H-pyrazol-4-yl)benzenesulfonyl]-6-hydroxy-2-[(propan-2-yloxy)methyl]-1,4-dihydropyrimidin-4-one] | 0.01 to 10
COC[C@@H](c1cccc(C#N)c1)n1c(COC(C)C)nc(=O)c(S(=O)(=O)c2ccc(-c3ccccc3C(N)=O)cc2)c1O [Example 399, 4′-({1-[(1R)-1-(3-cyanophenyl)-2-methoxyethyl]-6-hydroxy-4-oxo-2-[(propan-2-yloxy)methyl]-1,4-dihydropyrimidin-5-yl}sulfonyl)-[1,1′-biphenyl]-2-carboxamide] | 0.01 to 10
CCOCc1nc(=O)c(S(=O)(=O)c2ccc(-c3ccccc3C(N)=O)c(F)c2)c(O)n1C(COC)c1cccc(F)c1 (stereo not drawn) [Example 401, 4′-{[2-(ethoxymethyl)-1-[1-(3-fluorophenyl)-2-methoxyethyl]-6-hydroxy-4-oxo-1,4-dihydropyrimidin-5-yl]sulfonyl}-2′-fluoro-[1,1′-biphenyl]-2-carboxamide] | 0.01 to 10
CC[C@@H](c1cccc(C#N)c1)n1c(COC(C)C)nc(=O)c(S(=O)(=O)c2ccc(-c3ccncc3C#N)cc2)c1O [Example 403, 4-[4-({1-[(1S)-1-(3-cyanophenyl)propyl]-6-hydroxy-4-oxo-2-[(propan-2-yloxy)methyl]-1,4-dihydropyrimidin-5-yl}sulfonyl)phenyl]pyridine-3-carbonitrile] | 0.01 to 10
COC[C@@H](c1cccc(C#N)c1)n1c(COC(C)C)nc(=O)c(S(=O)(=O)c2ccc(-c3ccncc3C#N)cc2)c1O [Example 404, 4-[4-({1-[(1R)-1-(3-cyanophenyl)-2-methoxyethyl]-6-hydroxy-4-oxo-2-[(propan-2-yloxy)methyl]-1,4-dihydropyrimidin-5-yl}sulfonyl)phenyl] pyridine-3-carbonitrile] | 0.01 to 10
COC[C@@H](c1ccccc1)n1c(COC(C)C)nc(=O)c(S(=O)(=O)c2ccc(-c3ccncc3C#N)c(F)c2)c1O [Example 405, 4-[2-fluoro-4-({6-hydroxy-1-[(1R)-2-methoxy-1-phenylethyl]-4-oxo-2-[(propan-2-yloxy)methyl]-1,4-dihydropyrimidin-5-yl}sulfonyl)phenyl]pyridine-3-carbonitrile] | 0.01 to 10
COC[C@@H](c1ccccc1)n1c(COC(C)C)nc(=O)c(S(=O)(=O)c2ccc(-c3ccncc3C#N)cc2)c1O [Example 406, 4-[4-({6-hydroxy-1-[(1R)-2-methoxy-1-phenylethyl]-4-oxo-2-[(propan-2-yloxy)methyl]-1,4-dihydropyrimidin-5-yl}sulfonyl)phenyl]pyridine-3-carbonitrile] | 0.01 to 10
COC[C@@H](c1cc(F)cc(F)c1)n1c(COC(C)C)nc(=O)c(S(=O)(=O)c2ccc(-c3cnccc3C#N)cc2)c1O [Example 407, 3-[4-({1-[(1R)-1-(3,5-difluorophenyl)-2-methoxyethyl]-6-hydroxy-4-oxo-2-[(propan-2-yloxy)methyl]-1,4-dihydropyrimidin-5-yl}sulfonyl)phenyl] pyridine-4-carbonitrile] | 0.01 to 10
COC[C@@H](c1cccc(C#N)c1)n1c(COC(C)C)nc(=O)c(S(=O)(=O)c2ccc(-c3cnccc3C#N)cc2)c1O [Example 411, 3-[4-({1-[(1R)-1-(3-cyanophenyl)-2-methoxyethyl]-6-hydroxy-4-oxo-2-[(propan-2-yloxy)methyl]-1,4-dihydropyrimidin-5-yl}sulfonyl)phenyl]pyridine-4-carbonitrile] | 0.01 to 10
CCCCc1nc(=O)c(S(=O)(=O)c2ccc(-c3ccnc(F)c3C)cc2)c(O)n1[C@@H](COC)c1cccc(C(N)=O)c1 [Example 412, 3-[(1R)-1-{2-butyl-5-[4-(2-fluoro-3-methylpyridin-4-yl)benzenesulfonyl]-6-hydroxy-4-oxo-1,4-dihydropyrimidin-1-yl}-2-methoxyethyl]benzamide] | 0.01 to 10
COC[C@@H](c1ccccc1)n1c(COC(C)C)nc(=O)c(S(=O)(=O)c2ccc(-c3cnccc3C#N)cc2)c1O [Example 413, 3-[4-({6-hydroxy-1-[(1R)-2-methoxy-1-phenylethyl]-4-oxo-2-[(propan-2-yloxy)methyl]-1,4-dihydropyrimidin-5-yl}sulfonyl)phenyl] pyridine-4-carbonitrile] | 0.01 to 10

Now from value to compound:

EC50 [nM] | Compound
0.01 to 10 | COC[C@@H](c1cccc(C#N)c1)n1c(COC(C)C)nc(=O)c(S(=O)(=O)c2ccc(-c3ccnc(F)c3C)cc2)c1O [Example 395, 3-[(1R)-1-{5-[4-(2-fluoro-3-methylpyridin-4-yl)benzenesulfonyl]-6-hydroxy-4-oxo-2-[(propan-2-yloxy)methyl]-1,4-dihydropyrimidin-1-yl}-2-methoxyethyl]benzonitrile]
0.01 to 10 | COC[C@@H](c1cc(F)cc(F)c1)n1c(COC(C)C)nc(=O)c(S(=O)(=O)c2ccc(-c3cn(C)nc3C)cc2)c1O [Example 396, 1-[(1R)-1-(3,5-difluorophenyl)-2-methoxyethyl]-5-[4-(1,3-dimethyl-1H-pyrazol-4-yl)benzenesulfonyl]-6-hydroxy-2-[(propan-2-yloxy)methyl]-1,4-dihydropyrimidin-4-one]
0.01 to 10 | COC[C@@H](c1cc(F)cc(F)c1)n1c(COC(C)C)nc(=O)c(S(=O)(=O)c2ccc(-c3ccncc3C#N)cc2)c1O [Example 398, 4-[4-({1-[(1R)-1-(3,5-difluorophenyl)-2-methoxyethyl]-6-hydroxy-4-oxo-2-[(propan-2-yIoxy)methyl]-1,4-dihydropyrimidin-5-yl}sulfonyl)phenyl] pyridine-3-carbonitrile]
0.01 to 10 | CC[C@@H](c1cccc(C#N)c1)n1c(COC(C)C)nc(=O)c(S(=O)(=O)c2ccc(-c3ccccc3C(N)=O)cc2)c1O [Example 400, 4′-({1-[(1S)-1-(3-cyanophenyl)propyl]-6-hydroxy-4-oxo-2-[(propan-2-yloxy)methyl]-1,4-dihydropyrimidin-5-yl}sulfonyl)-[1,1′-biphenyl]-2-carboxamide]
0.01 to 10 | COC[C@@H](c1ccccc1)n1c(COC(C)C)nc(=O)c(S(=O)(=O)c2ccc(-c3ccccc3C(N)=O)c(F)c2)c1O [Example 402, 2′-fluoro-4′-({6-hydroxy-1-[(1R)-2-methoxy-1-phenylethyl]-4-oxo-2-[(propan-2-yloxy)methyl]-1,4-dihydropyrimidin-5-yl}sulfonyl)-[1,1′-biphenyl]-2-carboxamide]
0.01 to 10 | COC[C@@H](c1cc(F)cc(F)c1)n1c(COC(C)C)nc(=O)c(S(=O)(=O)c2ccc(-c3cccn(C)c3=O)cc2)c1O [Example 408, 1-[(1R)-1-(3,5-difluorophenyl)-2-methoxyethyl]-6-hydroxy-5-[4-(1-methyl-2-oxo-1,2-dihydropyridin-3-yl)benzenesulfonyl]-2-[(propan-2-yloxy)methyl]-1,4-dihydropyrimidin-4-one]
0.01 to 10 | COC[C@@H](c1ccccc1)n1c(COC(C)C)nc(=O)c(S(=O)(=O)c2ccc(-c3cnccc3C#N)c(F)c2)c1O [Example 409, 3-[2-fluoro-4-({6-hydroxy-1-[(1R)-2-methoxy-1-phenylethyl]-4-oxo-2-[(propan-2-yloxy)methyl]-1,4-dihydropyrimidin-5-yl}sulfonyl)phenyl]pyridine-4-carbonitrile]
0.01 to 10 | CC[C@@H](c1cccc(C#N)c1)n1c(COC(C)C)nc(=O)c(S(=O)(=O)c2ccc(-c3cnccc3C#N)cc2)c1O [Example 410, 3-[4-({1-[(1S)-1-(3-cyanophenyl)propyl]-6-hydroxy-4-oxo-2-[(propan-2-yloxy)methyl]-1,4-dihydropyrimidin-5-yl}sulfonyl)phenyl]pyridine-4-carbonitrile]
0.01 to 10 | CC(C)OCc1nc(=O)c(S(=O)(=O)c2ccc(-c3cnccc3C#N)cc2)c(O)n1[C@H](c1cccc(C#N)c1)C1CC1 [Example 414, 3-[4-({1-[(S)-(3-cyanophenyl)(cyclopropyl)methyl]-6-hydroxy-4-oxo-2-[(propan-2-yloxy)methyl]-1,4-dihydropyrimidin-5-yl}sulfonyl)phenyl] pyridine-4-carbonitrile]
0.01 to 10 | Cc1cnccc1-c1ccc(S(=O)(=O)c2c(O)n([C@H](c3cccc(C#N)c3)C3CC3)c(COC(C)C)nc2=O)cc1 [Example 415, 3-[(S)-cyclopropyl({6-hydroxy-5-[4-(3-methylpyridin-4-yl)benzenesulfonyl]-4-oxo-2-[(propan-2-yloxy)methyl]-1,4-dihydropyrimidin-1-yl})methyl]benzonitrile]
0.01 to 10 | CC(C)OCc1nc(=O)c(S(=O)(=O)c2ccc(-c3ccncc3C#N)cc2)c(O)n1[C@H](c1cccc(C#N)c1)C1CC1 [Example 416, 4-[4-({1-[(S)-(3-cyanophenyl)(cyclopropyl)methyl]-6-hydroxy-4-oxo-2-[(propan-2-yloxy)methyl]-1,4-dihydropyrimidin-5-yl}sulfonyl)phenyl]pyridine-3-carbonitrile]
